# Assays:
# LNCaP-HR tumor = assay: Castration-resistant LNCaP (LNCaP-HR) prostate cancer in vivo xenograft model; conditions: castrated male SCID mice, oral QD up to 15 days, 1 to 5 mg/kg; FIG. 5
# Method: Castration-Resistant LNCaP (LNCaP-HR) Prostate Cancer In Vivo Xenograft Model A xenograft study was conducted with castration resistant LNCaP-HR tumor-bearing mice. Castrated male SCID mice were inoculated subcutaneously with LNCaP-HR cells in the flank region above the right hind leg. Following inoculation of animals, the tumors were allowed to grow to about 325 mm^3 prior to randomization. On Day 26 following tumor cell inoculation, the mice bearing LNCaP-HR tumors ranging between 98 and 530 mm^3 were pooled together and randomized into various treatment groups. […] The positive control MDV-3100 (50 mg/kg, Q4D) was administered via oral route. MDV-3100 was formulated in 1% CMC, 0.1% Tween 80 and 5% dimethyl sulfoxide (DMSO) in water (as a suspension). Tumors were measured twice a week using calipers and tumor volumes were calculated using the formula of W2×L/2 (wherein “W” is tumor width and “L” is tumor length). Statistical analysis was performed using a one-way analysis of variance (ANOVA) followed by Dunnett's post-hoc comparison with the vehicle-treated control group.
# [1] = system: LNCaP, VCaP, DU145 or PC3 prostate cancer cell lines; assay: Matrigel cell invasion assay for ETS positive and ETS negative lines; format: cell-based; conditions: 10 μM, 48 hours treatment; FIG. 3
# Method: Cell Invasion Assay for ETS Positive and ETS Negative Lines. […] Then cells were tripsinized and re-seeded onto BD biocoat matrigel invasion chamber insert with […] of a 24-well culture plate in serum free media. Cells were then attracted to the lower chamber by the addition of complete media as a chemoattractant. After 48 hours incubation at 37° C./5% CO2, the non-invading cells and EC matrix were gently removed with a cotton swab. Invasive cells, which were located on the lower side of the membrane, were stained with crystal violet, air dried and photographed (FIG. 3).
# [2] = system: ETS positive prostate cancer cells (VCAP and LNCAP); assay: COMET DNA damage assay; format: cell-based; conditions: FIG. 4
# Excerpt: DNA Damage Assays: COMET Assay.
# [3] = system: PC3 and PC3-ERG prostate cancer cells; assay: Clonogenic growth inhibition assay for ETS positive and ETS negative lines; format: cell-based; conditions: PC3 vs PC3-ERG (ETS overexpression); FIG. 1A-C
# Excerpt: Clonogenic Assay: Growth Inhibition Assay for ETS Positive and ETS Negative Lines. […] Then, cells were washed three times with PBS, trypsinized, and replated onto 6 well plates at desired cell densities. Every 3 days the media was replaced with fresh media containing compound. After typically 10-18 days, the cells were fixed and surviving colonies were stained with 0.1% crystal violet and counted by Image Quant (BD biosciences).
# [4] = system: ETS-positive (VCaP and LNCaP) and ETS-negative (PC3 and DU145) prostate cancer cell lines; assay: Caspase 3/7-Glo apoptosis assay for ETS positive and ETS negative lines; format: cell-based; conditions: single treatment, 48 hours; FIG. 2
# Method: Caspase Analysis: Apoptosis Assay for ETS Positive and ETS Negative Lines. […] Cells were then directly seeded at desired densities to the Compound 1-spotted 384-well plates. Cells were cultured for 48 hours at 37° C./5% CO2 and were assessed via Caspase 3/7-Glo (Promega Corporation, Madison, Wis.) and read for luminescence.
substance,measurement,setting,value
"1-ethyl-7-(2-methyl-6-(1H-1,2,4-triazol-3-yl)pyridin-3-yl)-3,4-dihydropyrazino[2,3-b]pyrazin-2(1H)-one [Compound 1]",LNCaP-HR prostate cancer tumor growth,LNCaP-HR tumor,significantly inhibited
same,cell invasion,[1],reduced cell invasion
same,DNA damage (COMET tail moments),[2],potentiates DNA damage in ETS positive cells
same,clonogenic growth inhibition (surviving colonies),[3],ETS overexpression sensitizes PC3 cells to inhibition
same,Caspase activity (apoptosis),[4],increased apoptosis in ETS positive cell lines

# Source: patent US20130245028A1, “TREATMENT OF CANCER WITH TOR KINASE INHIBITORS” (SIGNAL PHARMACEUTICALS, LLC, priority 2012, published 2013)
